Results: patent publication US10392397B2, “Heterocyclic thiosemicarbazone derivatives and their therapeutical applications” (NANTBIO, INC., priority 2015, dated 2019)

Key:
Type in all cases: cell-based
COLO 205 = assay: SRB growth inhibition, COLO 205; conditions: Homo sapiens, COLO 205, Colon Cancer, 48 h
Method: (§1) Human tumor cell lines were grown in RPM(1640 medium containing 5% fetal bovine serum and 2 mM L-glutamine. For a typical screening experiment, cells were inoculated into 96 well microtiter plates in 100 μL at plating densities ranging from 5,000 to 40,000 cells/well depending on the doubling time of individual cell lines. After cell inoculation, the microtiter plates were incubated at 37° C., 5% CO2, 95% air and 100% relative humidity for 24 h prior to addition of Compound 3 above.
(§2) After 24 h, two plates of each cell line were fixed in situ with TCA, to represent a measurement of the cell population for each cell line at the time of drug addition (Tz). […]
(§3) Following drug addition, the plates were incubated for an additional 48 h at 37° C., 5% CO2, 95% air, and 100% relative humidity. […] Bound stain was subsequently solubilized with 10 mM trizma base, and the absorbance was read on an automated plate reader at a wavelength of 515 nm. […] Using the seven absorbance measurements [time zero, (Tz), control growth, (C), and test growth in the presence of drug at the five concentration levels (Ti)], the percentage growth was calculated at each of the drug concentrations levels. Percentage growth inhibition was calculated as: [(Ti-Tz)/(C-Tz)]×100 for concentrations for which Ti>/=Tz [(Ti-Tz)/Tz]×100 for concentrations for which Ti<Tz. […]

HCC-2998 = assay: SRB growth inhibition, HCC-2998; conditions: Homo sapiens, HCC-2998, Colon Cancer, 48 h
Method: as §1, §2, §3

DU-145 = assay: SRB growth inhibition, DU-145; conditions: Homo sapiens, DU-145, Prostate Cancer, 48 h
Method: as §1, §2, §3

PC-3 = assay: SRB growth inhibition, PC-3; conditions: Homo sapiens, PC-3, Prostate Cancer, 48 h
Method: as §1, §2, §3

M14 = assay: SRB growth inhibition, M14; conditions: Homo sapiens, M14, Melanoma, 48 h
Method: as §1, §2, §3

UO-31 = assay: SRB growth inhibition, UO-31; conditions: Homo sapiens, UO-31, Renal Cancer, 48 h
Method: as §1, §2, §3

NCI-H522 = assay: SRB growth inhibition, NCI-H522; conditions: Homo sapiens, NCI-H522, Non-Small Cell Lung Cancer, 48 h
Method: as §1, §2, §3

RXF 393 = assay: SRB growth inhibition, RXF 393; conditions: Homo sapiens, RXF 393, Renal Cancer, 48 h
Method: as §1, §2, §3

NCI-H23 = assay: SRB growth inhibition, NCI-H23; conditions: Homo sapiens, NCI-H23, Non-Small Cell Lung Cancer, 48 h
Method: as §1, §2, §3

A498 = assay: SRB growth inhibition, A498; conditions: Homo sapiens, A498, Renal Cancer, 48 h
Method: as §1, §2, §3

IGROV1 = assay: SRB growth inhibition, IGROV1; conditions: Homo sapiens, IGROV-1, IGROV1, Ovarian Cancer, 48 h
Method: as §1, §2, §3

SK-MEL-28 = assay: SRB growth inhibition, SK-MEL-28; conditions: Homo sapiens, SK-MEL-28, Melanoma, 48 h
Method: as §1, §2, §3

CCRF-CEM = assay: SRB growth inhibition, CCRF-CEM; conditions: Homo sapiens, Leukemia, 48 h
Method: as §1, §2, §3

T-47D = assay: SRB growth inhibition, T-47D; conditions: Homo sapiens, T47D, Breast Cancer, 48 h
Method: as §1, §2, §3

SNB-19 = assay: SRB growth inhibition, SNB-19; conditions: Homo sapiens, SNB-19, CNS Cancer, 48 h
Method: as §1, §2, §3

HT29 = assay: SRB growth inhibition, HT29; conditions: Homo sapiens, HT-29, HT29, Colon Cancer, 48 h
Method: as §1, §2, §3

SF-539 = assay: SRB growth inhibition, SF-539; conditions: Homo sapiens, SF-539, CNS Cancer, 48 h
Method: as §1, §2, §3

OVCAR-4 = assay: SRB growth inhibition, OVCAR-4; conditions: Homo sapiens, OVCAR-4, Ovarian Cancer, 48 h
Method: as §1, §2, §3

SF-268 = assay: SRB growth inhibition, SF-268; conditions: Homo sapiens, SF-268, CNS Cancer, 48 h
Method: as §1, §2, §3

MDA-MB-435 = assay: SRB growth inhibition, MDA-MB-435; conditions: Homo sapiens, MDA-MB-435, Melanoma, 48 h
Method: as §1, §2, §3

TK-10 = assay: SRB growth inhibition, TK-10; conditions: Homo sapiens, TK-10, Renal Cancer, 48 h
Method: as §1, §2, §3

HS 578T = assay: SRB growth inhibition, HS 578T; conditions: Homo sapiens, Breast Cancer, 48 h
Method: as §1, §2, §3

MDA-MB-468 = assay: SRB growth inhibition, MDA-MB-468; conditions: Homo sapiens, MDA-MB-468, Breast Cancer, 48 h
Method: as §1, §2, §3

NCI-H226 = assay: SRB growth inhibition, NCI-H226; conditions: Homo sapiens, NCI-H226, Non-Small Cell Lung Cancer, 48 h
Method: as §1, §2, §3

MCF7 = assay: SRB growth inhibition, MCF7; conditions: Homo sapiens, MCF7, Breast Cancer, 48 h
Method: as §1, §2, §3

UACC-62 = assay: SRB growth inhibition, UACC-62; conditions: Homo sapiens, UACC-62, Melanoma, 48 h
Method: as §1, §2, §3

HOP-92 = assay: SRB growth inhibition, HOP-92; conditions: Homo sapiens, HOP-92, Non-Small Cell Lung Cancer, 48 h
Method: as §1, §2, §3

A549/ATCC = assay: SRB growth inhibition, A549/ATCC; conditions: Homo sapiens, Non-Small Cell Lung Cancer, 48 h
Method: as §1, §2, §3

SR = assay: SRB growth inhibition, SR; conditions: Homo sapiens, Leukemia, 48 h
Method: as §1, §2, §3

MALME-3M = assay: SRB growth inhibition, MALME-3M; conditions: Homo sapiens, Melanoma, 48 h
Method: as §1, §2, §3

CAKI-1 = assay: SRB growth inhibition, CAKI-1; conditions: Homo sapiens, CAKI-1, Renal Cancer, 48 h
Method: as §1, §2, §3

MOLT-4 = assay: SRB growth inhibition, MOLT-4; conditions: Homo sapiens, MOLT-4, Leukemia, 48 h
Method: as §1, §2, §3

SNB-75 = assay: SRB growth inhibition, SNB-75; conditions: Homo sapiens, SNB-75, CNS Cancer, 48 h
Method: as §1, §2, §3

NCI-H460 = assay: SRB growth inhibition, NCI-H460; conditions: Homo sapiens, NCI-H460, Non-Small Cell Lung Cancer, 48 h
Method: as §1, §2, §3

786-0 = assay: SRB growth inhibition, 786-0; conditions: Homo sapiens, 786-0, Renal Cancer, 48 h
Method: as §1, §2, §3

OVCAR-3 = assay: SRB growth inhibition, OVCAR-3; conditions: Homo sapiens, OVCAR-3, Ovarian Cancer, 48 h
Method: as §1, §2, §3

NCI/ADR-RES = assay: SRB growth inhibition, NCI/ADR-RES; conditions: Homo sapiens, Ovarian Cancer, 48 h
Method: as §1, §2, §3

OVCAR-8 = assay: SRB growth inhibition, OVCAR-8; conditions: Homo sapiens, OVCAR-8, Ovarian Cancer, 48 h
Method: as §1, §2, §3

SK-OV-3 = assay: SRB growth inhibition, SK-OV-3; conditions: Homo sapiens, SK-OV-3, Ovarian Cancer, 48 h
Method: as §1, §2, §3

U251 = assay: SRB growth inhibition, U251; conditions: Homo sapiens, U-251, U251, CNS Cancer, 48 h
Method: as §1, §2, §3

SW-620 = assay: SRB growth inhibition, SW-620; conditions: Homo sapiens, SW-620, Colon Cancer, 48 h
Method: as §1, §2, §3

SF-295 = assay: SRB growth inhibition, SF-295; conditions: Homo sapiens, SF-295, CNS Cancer, 48 h
Method: as §1, §2, §3

ACHN = assay: SRB growth inhibition, ACHN; conditions: Homo sapiens, Renal Cancer, 48 h
Method: as §1, §2, §3

SK-MEL-2 = assay: SRB growth inhibition, SK-MEL-2; conditions: Homo sapiens, SK-MEL-2, Melanoma, 48 h
Method: as §1, §2, §3

RPMI-8226 = assay: SRB growth inhibition, RPMI-8226; conditions: Homo sapiens, RPMI-8226, Leukemia, 48 h
Method: as §1, §2, §3

OVCAR-5 = assay: SRB growth inhibition, OVCAR-5; conditions: Homo sapiens, OVCAR-5, Ovarian Cancer, 48 h
Method: as §1, §2, §3

HL-60(TB) = assay: SRB growth inhibition, HL-60(TB); conditions: Homo sapiens, Leukemia, 48 h
Method: as §1, §2, §3

SK-MEL-5 = assay: SRB growth inhibition, SK-MEL-5; conditions: Homo sapiens, SK-MEL-5, Melanoma, 48 h
Method: as §1, §2, §3

NCI-H322M = assay: SRB growth inhibition, NCI-H322M; conditions: Homo sapiens, Non-Small Cell Lung Cancer, 48 h
Method: as §1, §2, §3

K-562 = assay: SRB growth inhibition, K-562; conditions: Homo sapiens, K562, K-562, Leukemia, 48 h
Method: as §1, §2, §3

EKVX = assay: SRB growth inhibition, EKVX; conditions: Homo sapiens, Non-Small Cell Lung Cancer, 48 h
Method: as §1, §2, §3

UACC-257 = assay: SRB growth inhibition, UACC-257; conditions: Homo sapiens, UACC-257, Melanoma, 48 h
Method: as §1, §2, §3

SN12C = assay: SRB growth inhibition, SN12C; conditions: Homo sapiens, Renal Cancer, 48 h
Method: as §1, §2, §3

HCT-15 = assay: SRB growth inhibition, HCT-15; conditions: Homo sapiens, HCT-15, Colon Cancer, 48 h
Method: as §1, §2, §3

BT-549 = assay: SRB growth inhibition, BT-549; conditions: Homo sapiens, BT-549, Breast Cancer, 48 h
Method: as §1, §2, §3

HCT-116 = assay: SRB growth inhibition, HCT-116; conditions: Homo sapiens, HCT-116, Colon Cancer, 48 h
Method: as §1, §2, §3

MDA-MB-231/ATCC = assay: SRB growth inhibition, MDA-MB-231/ATCC; conditions: Homo sapiens, Breast Cancer, 48 h
Method: as §1, §2, §3

LOX IMVI = assay: SRB growth inhibition, LOX IMVI; conditions: Homo sapiens, Melanoma, 48 h
Method: as §1, §2, §3

HOP-62 = assay: SRB growth inhibition, HOP-62; conditions: Homo sapiens, HOP-62, Non-Small Cell Lung Cancer, 48 h
Method: as §1, §2, §3

KM12 = assay: SRB growth inhibition, KM12; conditions: Homo sapiens, KM12, Colon Cancer, 48 h
Method: as §1, §2, §3

S=C(N/N=C1/CCOc2cccnc21)N1CCN(c2ccccn2)CC1 [Example 3, (Z)—N′-(2H-pyrano[3,2-b]pyridin-4(3H)-ylidene)-4-(pyridin-2-yl)piperazine-1-carbothiohydrazide]
GI50 (COLO 205): < 0.01 µM
GI50 (HCC-2998): 0.701 µM
GI50 (DU-145): 0.345 µM
GI50 (PC-3): < 0.01 µM
GI50 (M14): 0.0375 µM
GI50 (UO-31): 0.132 µM
GI50 (NCI-H522): 0.505 µM
GI50 (RXF 393): 1.34 µM
GI50 (NCI-H23): 0.0321 µM
GI50 (A498): 0.192 µM
GI50 (IGROV1): < 0.01 µM
GI50 (SK-MEL-28): 0.472 µM
GI50 (CCRF-CEM): < 0.01 µM
GI50 (T-47D): < 0.01 µM
GI50 (SNB-19): 0.433 µM
GI50 (HT29): < 0.01 µM
GI50 (SF-539): 1.16 µM
GI50 (OVCAR-4): 0.0165 µM
GI50 (SF-268): 0.41 µM
GI50 (MDA-MB-435): 0.271 µM
GI50 (TK-10): 0.748 µM
GI50 (HS 578T): 0.754 µM
GI50 (MDA-MB-468): < 0.01 µM
GI50 (NCI-H226): 0.338 µM
GI50 (MCF7): < 0.01 µM
GI50 (UACC-62): 0.17 µM
GI50 (HOP-92): 0.0167 µM
GI50 (A549/ATCC): 0.155 µM
GI50 (SR): 0.0655 µM
GI50 (MALME-3M): 1.29 µM
GI50 (CAKI-1): 0.151 µM
GI50 (MOLT-4): < 0.01 µM
GI50 (SNB-75): 1.08 µM
GI50 (NCI-H460): 0.0388 µM
GI50 (786-0): 0.0771 µM
GI50 (OVCAR-3): < 0.01 µM
GI50 (NCI/ADR-RES): 0.0374 µM
GI50 (OVCAR-8): 0.0374 µM
GI50 (SK-OV-3): 0.082 µM
GI50 (U251): 0.0265 µM
GI50 (SW-620): < 0.01 µM
GI50 (SF-295): 0.232 µM
GI50 (ACHN): 0.196 µM
GI50 (SK-MEL-2): 0.799 µM
GI50 (RPMI-8226): < 0.01 µM
GI50 (OVCAR-5): 0.991 µM
GI50 (HL-60(TB)): 0.0149 µM
GI50 (SK-MEL-5): 0.222 µM
GI50 (NCI-H322M): 0.221 µM
GI50 (K-562): < 0.01 µM
GI50 (EKVX): 0.14 µM
GI50 (UACC-257): 0.0118 µM
GI50 (SN12C): 1.49 µM
GI50 (HCT-15): < 0.01 µM
GI50 (BT-549): 0.0718 µM
GI50 (HCT-116): < 0.01 µM
GI50 (MDA-MB-231/ATCC): 0.0748 µM
GI50 (LOX IMVI): 0.0251 µM
GI50 (HOP-62): 0.0372 µM
GI50 (KM12): 0.225 µM
